Converted amounts (≈) assume the structure as drawn. Where two headings read alike, the source gives them in different places.
Experiments:
IL-1β = assay: Inhibition of IL-1β production in LPS-stimulated THP-1 cells (ELISA); type: cell-based, human; conditions: for IC50: Homo sapiens
Experimental: Cell line. THP-1 cells (human monocyte) were maintained in RPMI 1640 medium containing 25 mM Hepes buffer, 2 mM L-glutamine, 50 units of penicillin per mL, 50 μg of streptomycin sulfate per mL, and 10% heat-inactivated fetal bovine serum (FBS) in a humidified incubator containing 5% CO2. The cells were split 1:4 weekly as recommended by the American Type Culture Collection (ATCC).
TNFα assay. Varying concentrations of the test compound or control compound were added to THP-1 cells plated at a density of 1×10^6cells/mL in 600 μL of 10% RPMI in a 48 well plate. After one hour the cells were stimulated with 0.5 μg of lipopolysaccharide (LPS; Sigma, lot number 43H40491) per mL. Six hours post-stimulation supernatants were collected and assayed for TNFα or IL-1β production using a commercially available cytokine detection ELISA (Enzyme Linked Immunosorbent Assay) kit according to the suppliers instructions. A suitable assay kit may be obtained from Biosource, or R and D systems. A novel xanthine analog, HWA-3138, having the structure (as shown below) was used as the control compound (30) in this study to monitor the response of the THP-l cells. Xanthine analogs are known inhibitors of TNFα but not IL-1β. In the following experiments compound HWA-3138 was used as a positive control. [drawing 58] […]
THP-1 cells were cultured and IL-1β inhibition assays were conducted as described for TNFα in Example 46, except a commercially available IL-1β assay kit, obtained from R and D Systems, Minneapolis, Minn., was used instead of the TNFα kit.
With reference now to FIG. 8, for each concentration of T70241 tested, the membrane bound IL-1β was separated from the IL-1β found free in the culture medium at 6 hours post-LPS stimulation as described in Example 46 for TNFα, and the percent inhibition of each fraction was graphed.

[1] = Cytotoxicity on growing THP-1 cells (MTS assay); type: cell-based, human; conditions: human, thp-1 cells; Table 2; drug dose required to inhibit logphase growing cells by 50%; read-out: TC50 Growing THP-1
Experimental: Cytotoxicity Analysis. The cytotoxicity of the compounds were assayed using the CellTiter 96™ Aqueous Non-Radioactive Cell Proliferation (MTS) Assay kit obtained from Promega (Madison, Wis.) following the instructions provided by the supplier. The viable cell number was determined by trypan blue staining and cells (THP-1) were resuspended in PRMI supplemented with 10% FBS (GIBCO). Eighty microliters of cell suspension (1.7×10^4cells/well) was dispensed onto a 96-well microtiter plates. At this time 20 μL of drug (or control) was added to appropriate wells. Each concentration was assayed in quadruplicate. The plates were incubated at 37° C. in a humidified 5% CO2 atmosphere for 4 days and MTS assay […] for each concentration and the data obtained was used to calculate TC50 (the concentration of the compound necessary to inhibit the cell growth by 50%) for each compound.

HCMV (Town strain) = assay: HCMV plaque reduction (CPE) assay in MRC-5 cells; type: cell-based, human cytomegalovirus
Experimental: The adenine analog phosphazole (compound T70241) was assayed for antiviral activity using a HCMV plaque reduction assay, in accordance with known methods such as that described in U.S. Pat. No. 5,446,045.
(§1) Cell Culture. Vero (African Green Monkey kidney cells) and MRC-5 (diploid Human Embryonic Lung fibroblasts) cells were obtained from the American Type Culture Collection (ATCC) and were grown in minimal essential medium (MEM) with Earl's salts and glutamine (GIBCO BRL, Life Technologies, Inc.) with 10% heat inactivated fetal bovine serum (GIBCO BRL) and penicillin (100 μg/mL)/streptomycin (100 μg/mL).
CMV Cytopathic Effect (CPE) Assay. Assays were performed essentially as described by Lewis et al. (111), which report is incorporated herein by reference. MRC-5 cells (100,000 cells/well) were seeded in 24-well plates overnight. Medium was then removed and wells were rinsed once with 250 μL of 2% FCS-MEM before adding 40-50 pfu of HCMV (Town strain) to each well. After 2 hours of virus adsorption, the medium was removed and the cells were rinsed once with 2% FCS-MEM. Varying concentrations of the phosphazole compound in the culture medium (1 mL) was then added to appropriate wells and plates were incubated for 5-6 days at 37° C. in a humidified 5% CO2 atmosphere. Each concentration was tested in duplicate wells.
The extent of the plaque reduction was quantitated by removing the media and adding 200 μL of 0.1% crystal violet in 20% methanol to all wells. The crystal violet was then removed after 10 min staining at room temperature by rinsing in the sink with tap water and the plates dried overnight. The plaques were then counted using a Nikon inverted microscope.

HSV-1 = HSV-1 CPE assay in Vero cells; type: cell-based; conditions: Human alphaherpesvirus 1, Vero; Table 4
HSV-2 = HSV-2 CPE assay in Vero cells; type: cell-based; conditions: Human alphaherpesvirus 2, Vero; Table 4
[2] = Cytotoxicity on growing MRC-5 cells (MTS); type: cell-based, human; conditions: human, mrc-5 cells
Experimental: as §1
(§2) Cytotoxicity Analysis. The cytotoxicity of the compound was assayed using few the CellTiter 96™ Aqueous Non-Radioactive Cell Proliferation (MTS) Assay (Promega). Briefly, viable cell number was determined by trypan blue staining and cells (MRC-5 and Vero) were resuspended in minimal essential medium (MEM) supplemented with 10% FBS (GIBCO). Eighty microliters of cell suspension (1.7×10^4 cells/well) was dispensed onto a 96-well microtiter plates. At this time 20 μL of drug (or control) was added to appropriate wells. Each concentration was assayed in quadruplicate. The plates were incubated at 37° C. in a humidified 5% CO2 atmosphere for 4 days and MTS assay was performed according to the manufacturer's instructions. The average absorbence of the sample was graphed for each concentration and the data obtained was used to calculate TC50 (the concentration necessary to give one-half maximum growth) for each compound.

[3] = Cytotoxicity on static MRC-5 cells; type: cell-based; conditions: human, Table 4, 50% cell death (static cells), read-out: TC50 Static MRC-5
Experimental: as §1, §2

[4] = Cytotoxicity on growing Vero cells (MTS); type: cell-based; conditions: african green monkey, Table 4, 50% inhibition of logphase growing cells, read-out: TC50 Growing Vero
Experimental: as §1, §2

[5] = Table 2, LPS-stimulated THP-1, 6 h post-stimulation, read-out: IC50 IL-1β in THP-1 cells

Row | Structure (SMILES) | inhibition of IL-1β production (IL-1β; 50 to 100 μg/mL, THP-1 (FIG. 6)) | cell-associated and free IL-1β (IL-1β; 6 hours post-LPS (FIG. 8)) | IC50 (IL-1β; [5]) | IC50 (IL-1β; from FIG. 6, LPS-stimulated THP-1, read-out: IC50, IL-1β production) | CC50 at 96 h [1] | inhibition of HCMV virus production (HCMV (Town strain); 0.01-10 μg/mL) | IC50 (HCMV (Town strain); Human betaherpesvirus 5, MRC5, read-out: 50% inhibitory concentration (IC50), HCMV induced plaques) | IC50 (HCMV (Town strain); Human betaherpesvirus 5, MRC5, Table 4, read-out: IC50 HCMV) | IC50 (HSV-1) | IC50 (HSV-2) | CC50 at 96 h ([2]; FIG. 9A, four day period, read-out: TC50, growing MRC-5 cells) | CC50 at 96 h [3] | CC50 at 96 h [4] | IC50 (HCMV (Town strain); Human betaherpesvirus 5, MRC5, read-out: IC50 HCMV) | CC50 at 96 h ([2]; Table 4, 50% inhibition of logphase growing cells, read-out: TC50 Growing MRC-5)
1 | Nc1ncnc2pc[nH]c12 (stereo not drawn) [T70241, 7-amino-1H-1,3-azaphospholo[4,5-d]pyrimidine] | able to inhibit IL-1β production | reduce both the cell-associated (intracelluar) and the free (extracellular) IL-1β | 16.1 µg/mL (≈ 106 µM) | 38.8 µg/mL (≈ 255 µM) | > 1000 µg/mL | nearly logrithmic increase in inhibition of virus production | ~8.25 µg/mL (≈ 54.2 µM) | 8.08 µg/mL (≈ 53.1 µM) | > 50 µg/mL | > 50 µg/mL | > 50 µg/mL | > 50 µg/mL | > 50 µg/mL |  | 
2 | CCCCCn1cpc2ncnc(N)c21 (stereo not drawn) [T70254, 7-Amino-1-(n-pentyl)-1,3-azaphospholo[4,5-d]pyrimidine] |  |  | 152 µg/mL (≈ 686 µM) |  | 14.7 µg/mL (≈ 66.2 µM) |  |  |  | > 50 µg/mL | > 50 µg/mL |  | 9.25 µg/mL (≈ 41.6 µM) | 8.18 µg/mL (≈ 36.8 µM) | > 50 µg/mL | 17.9 µg/mL (≈ 80.8 µM)
